# Test: Inhibition of FTase
row,Structure (SMILES),IC50 [nM]
1,N#Cc1ccc(Cn2ccnc2)cc1Oc1cccc(C2CCCCNC2=O)c1 (stereo not given),41
2,Fc1ccc2c(c1)[C@@H](OCc1ccc(Cl)cc1Cl)[C@@H](Cn1ccnc1)S2,700
3,CN1CCC(C2c3ccccc3CCc3cccnc32)CC1 (stereo not given),720000
4,CC(C)CCCC(C)C1CCC2C3C(CC[C@]12C)[C@@](C)(C[C@@H](CC(=O)O)C(=O)O)C(=O)C[C@@H]3C (stereo not given in full),40
5,CC(=O)OCC(=O)[C@@]1(O)C(C)CC2C3CCC4=CC(=O)C=C[C@]4(C)C3=CC[C@@]21C (stereo not given in full),40000
6,COC(=O)[C@H](CCSC)NC(=O)c1cccc2cc(NC[C@H](N)CS)ccc12,500
7,COc1ccccc1CC(=O)N1C[C@@H]2[C@@H]3CC[C@@](c4ccccc4)(c4ccccc43)[C@@H]2C1,40000
8,O=C1CN(Cc2cncn2Cc2cccc(Oc3ccccc3)c2)CCN1c1ccc(C(F)(F)F)cc1,5800
9,CC[C@@H](C)[C@@H](CN(CC(=O)N[C@@H](CCSC)C(=O)O)Cc1cccc2ccccc12)NC(=O)Cc1cn(Cc2ccncc2)cn1,74
10,CCCC[C@H]1CN(C(=O)c2cccc3ccccc23)CCN1Cc1cncn1Cc1ccc(C#N)cc1,21
11,Cc1cccc2c1[C@@H](O)[C@@H](Cn1ccnc1)S2,270000
12,N#Cc1ccc2cc1Oc1ccc3cccc(c3c1)N1CCN(CC1=O)Cc1cncn1C2,0.1
13,O=C(Cc1ccncc1)N1CCN([C@H]2c3ccc(Cl)cc3CCc3cccnc32)CC1,140
14,CC[C@@H](C)[C@@H](CO[C@@H](Cc1ccccc1)C(=O)N[C@@H](CCS(C)(=O)=O)C(=O)OC)NC[C@@H](N)CS,240

# The remaining lines, values ahead:
row,IC50 [nM],Structure (SMILES)
1,1.8,CC[C@@H](C)[C@@H](CO[C@@H](Cc1ccccc1)C(=O)N[C@@H](CCS(C)(=O)=O)C(=O)O)NC[C@@H](N)CS
2,2.4,CN1CCN(C(=O)c2cn(Cc3cncn3Cc3ccc4c(c3)OCO4)cc2-c2cccc3ccccc23)CC1
3,5,N#Cc1ccc(Cn2cncc2CN2CCN(c3ccccc3)C(=O)C2)cc1
4,5,Cn1cncc1C(OCc1ccc(C#N)cc1NC(=O)c1ccccc1)c1ccc(C#N)cc1 (stereo not given)
5,0.15,CC[C@@H](C)[C@@H](CN(CC(=O)N[C@@H](CCSC)C(=O)O)Cc1cccc2ccccc12)NC(=O)Cc1cncn1Cc1ccc(C#N)cc1
6,18,CSCC[C@H](NC(=O)c1cccc2cc(NC[C@H](N)CS)ccc12)C(=O)O
7,1,N#Cc1ccc(Cn2cncc2CN2CCN(c3cccc(Cl)c3)C(=O)C2)cc1Oc1ccc2ccccc2c1
8,0.44,CCCC[C@H]1CN(c2ccc(Cl)cc2)C(=O)CN1Cc1cncn1Cc1ccc(C#N)cc1
9,1.5,CC[C@]1(c2cccc(Oc3cc([C@@](C)(N)c4cncn4C)ccc3C#N)c2)CCCCN(C)C1=O
10,0.06,CC[C@@]1(c2cccc(Oc3cc([C@@](C)(N)c4cncn4C)ccc3C#N)c2)CCCCN(C)C1=O
11,8,C=C(C(=O)N1C[C@H]2[C@@]3(c4ccc(C)cc4)CC[C@H](c4ccccc43)[C@@]2(C(=O)O)C1)c1ccccc1OC

# — ChEMBL document CHEMBL1140594, “Farnesyltransferase pharmacophore model derived from diverse classes of inhibitors” (Bioorg Med Chem Lett, 2007)
